Activity calls are given as the source filed them.
Assays:
Albumin = Albumin (Bos taurus, UniProt P02769); experiment: Counterscreen for inhibitors of T-cell receptor (TCR)-CD3 interaction: Fluorescence-based biochemical high throughput dose response assay to identify inhibitors of T-cell receptor (TCR)-CD3 interaction using a TAMRA-labeled BSA probe.; format: functional
Interleukin-8 [1] = molecular target: T1, Interleukin-8 (Homo sapiens, UniProt P10145); experiment: Dose Response confirmation of uHTS small molecule hits for cystic fibrosis induced NFkb Inhibitors in a PAF-induced IL8 counterscreen.; format: functional; conditions: read-out: IC50_Mean
T1 sequence (P10145 whole entry): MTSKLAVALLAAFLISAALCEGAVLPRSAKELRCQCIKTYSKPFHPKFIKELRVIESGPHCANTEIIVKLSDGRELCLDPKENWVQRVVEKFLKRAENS

Interleukin-8 [2] = molecular target: T1, Interleukin-8; experiment: Dose Response confirmation of uHTS small molecule hits for cystic fibrosis induced NFkb Inhibitors in a TNFa-induced IL8 counterscreen.; format: functional; conditions: read-out: IC50_Mean
[3] = intracellular Trypanosoma cruzi inhibitors in host cells – cell-based, plate reader, cherry-pick samples, set 3, dose response (AID 651818); format: functional;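 also: compounds incubated with infected cells for about four days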
[4] = mouse fibroblast viability loss – cell-based, cherry-pick samples, set 2, cytotoxicity control for T. cruzi growth inhibitor project, dose response (AID 651817); format: functional; conditions: NIH3T3
[5] = molecular target: T2, Rac GTPase-activating protein 1 (Homo sapiens, UniProt Q9H0H5); experiment: blockers of MgcRacGAP-driven Rac1 GTP hydrolysis – biochemical, ADP Hunter fluorescence, primary and confirmatory, confirmation (AID 624330); format: functional
T2 sequence (Q9H0H5 whole entry): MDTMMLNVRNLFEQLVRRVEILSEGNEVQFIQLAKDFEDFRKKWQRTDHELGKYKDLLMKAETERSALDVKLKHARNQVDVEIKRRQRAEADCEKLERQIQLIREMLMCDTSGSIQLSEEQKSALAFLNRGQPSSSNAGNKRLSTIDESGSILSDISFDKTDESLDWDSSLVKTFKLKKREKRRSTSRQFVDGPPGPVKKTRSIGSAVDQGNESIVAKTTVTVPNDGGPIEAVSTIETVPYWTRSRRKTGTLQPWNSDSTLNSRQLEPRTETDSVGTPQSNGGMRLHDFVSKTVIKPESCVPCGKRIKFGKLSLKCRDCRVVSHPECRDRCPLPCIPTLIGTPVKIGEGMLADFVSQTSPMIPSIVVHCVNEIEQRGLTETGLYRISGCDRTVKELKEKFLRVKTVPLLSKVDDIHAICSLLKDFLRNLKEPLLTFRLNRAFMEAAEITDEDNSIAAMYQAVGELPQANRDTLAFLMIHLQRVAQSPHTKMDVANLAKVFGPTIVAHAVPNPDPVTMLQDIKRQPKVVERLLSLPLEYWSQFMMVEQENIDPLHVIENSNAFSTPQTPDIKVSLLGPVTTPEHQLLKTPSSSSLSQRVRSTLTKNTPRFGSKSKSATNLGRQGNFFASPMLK

[6] = Fluorescence-based cell-based high throughput dose response assay for inhibitors of the interaction of nucleotide-binding oligomerization domain containing 2 (NOD2) and the receptor-interacting serine-threonine kinase 2 (RIPK2).; format: functional; conditions: Homo sapiens
[7] = molecular target: T3, Low molecular weight phosphotyrosine protein phosphatase (Homo sapiens, UniProt P24666); format: functional; conditions: read-out: IC50_Mean
T3 sequence (P24666 whole entry): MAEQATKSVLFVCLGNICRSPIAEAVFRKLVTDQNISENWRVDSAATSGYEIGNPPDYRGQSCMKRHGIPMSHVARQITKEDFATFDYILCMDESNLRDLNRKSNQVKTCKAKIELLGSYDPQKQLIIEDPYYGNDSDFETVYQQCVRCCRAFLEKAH

[8] = microbe, parasite or virus in culture; format: functional; conditions: Mycobacterium tuberculosis
[9] = molecular target: T3, Low molecular weight phosphotyrosine protein phosphatase; format: functional; conditions: read-out: IC50_Mean; remark: listed apart in the source
[10] = molecular target: Adenosylmethionine-8-amino-7-oxononanoate aminotransferase (Mycobacterium tuberculosis, UniProt P9WQ81); experiment: Mycobacterium tuberculosis BioA enzyme inhibitor Measured in Biochemical System Using Plate Reader - 2163-02_Inhibitor_Dose_CherryPick_Activity.; format: functional, Mycobacterium tuberculosis UT205
Sequence of Adenosylmethionine-8-amino-7-oxononanoate aminotransferase (P9WQ81 whole entry): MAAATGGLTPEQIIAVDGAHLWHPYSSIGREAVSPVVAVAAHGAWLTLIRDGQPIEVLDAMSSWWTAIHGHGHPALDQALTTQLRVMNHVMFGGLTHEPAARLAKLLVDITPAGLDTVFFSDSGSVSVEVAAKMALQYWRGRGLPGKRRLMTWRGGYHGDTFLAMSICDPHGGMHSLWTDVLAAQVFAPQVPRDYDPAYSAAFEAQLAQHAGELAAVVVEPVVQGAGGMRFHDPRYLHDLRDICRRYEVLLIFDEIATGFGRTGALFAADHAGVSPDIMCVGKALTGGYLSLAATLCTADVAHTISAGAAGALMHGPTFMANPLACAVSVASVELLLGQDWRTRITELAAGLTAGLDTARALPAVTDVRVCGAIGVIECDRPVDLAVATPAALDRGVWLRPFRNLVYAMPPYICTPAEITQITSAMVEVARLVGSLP

[11] = bead-based luminescence quenchers, dual-tagged ARNT – biochemical, AlphaScreen, cherry-pick, artefact control for ARNT-TACC3 interaction inhibitor project, dose response (AID 651705); format: functional;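 also: AlphaScreen bead proximity signal that flags compounds interfering with the detection technology; potency reflects signal decrease which marks the compound as an assay artifact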
Nonstructural protein 1 = Nonstructural protein 1 (Influenza A virus, UniProt Q194T2); format: functional, Influenza A virus (A/California/07/2009(H1N1))
Sequence of Nonstructural protein 1 (Q194T2 whole entry): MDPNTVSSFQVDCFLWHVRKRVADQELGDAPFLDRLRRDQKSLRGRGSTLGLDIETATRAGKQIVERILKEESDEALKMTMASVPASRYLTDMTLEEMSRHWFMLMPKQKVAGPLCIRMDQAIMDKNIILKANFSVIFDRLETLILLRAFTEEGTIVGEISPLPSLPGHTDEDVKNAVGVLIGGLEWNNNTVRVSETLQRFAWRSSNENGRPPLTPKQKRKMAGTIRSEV

[12] = molecular target: Fructose-bisphosphate aldolase (Mycobacterium tuberculosis, UniProt P9WQA3); experiment: Fluorescence-based biochemical high throughput dose response assay for inhibitors of the fructose-bisphosphate aldolase (FBA) of M. tuberculosis.; format: functional
Sequence of Fructose-bisphosphate aldolase (P9WQA3 whole entry): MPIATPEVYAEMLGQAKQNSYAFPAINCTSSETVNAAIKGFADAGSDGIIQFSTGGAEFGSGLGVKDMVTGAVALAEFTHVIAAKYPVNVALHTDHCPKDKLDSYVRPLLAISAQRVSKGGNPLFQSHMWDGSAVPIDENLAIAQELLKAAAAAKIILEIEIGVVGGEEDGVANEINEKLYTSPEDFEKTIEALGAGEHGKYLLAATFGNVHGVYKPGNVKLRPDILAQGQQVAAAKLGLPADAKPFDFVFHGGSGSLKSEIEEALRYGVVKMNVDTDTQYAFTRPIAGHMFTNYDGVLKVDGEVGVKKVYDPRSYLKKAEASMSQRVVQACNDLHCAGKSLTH

Galanin receptor type 3 = Galanin receptor type 3 (Homo sapiens, UniProt O60755); experiment: Fluorescence-based cell-based primary high throughput dose response assay to identify antagonists of the Galanin Receptor 3 (GalR3).; format: functional
Sequence of Galanin receptor type 3 (O60755 whole entry): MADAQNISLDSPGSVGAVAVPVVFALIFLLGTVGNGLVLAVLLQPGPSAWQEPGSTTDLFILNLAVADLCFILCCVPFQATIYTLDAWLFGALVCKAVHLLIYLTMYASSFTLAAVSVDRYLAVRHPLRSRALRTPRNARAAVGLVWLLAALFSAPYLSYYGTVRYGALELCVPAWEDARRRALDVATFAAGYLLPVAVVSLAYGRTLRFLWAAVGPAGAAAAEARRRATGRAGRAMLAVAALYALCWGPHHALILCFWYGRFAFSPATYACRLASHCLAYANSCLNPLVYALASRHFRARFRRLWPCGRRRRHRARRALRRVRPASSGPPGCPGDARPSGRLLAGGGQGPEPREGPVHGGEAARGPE

cells = format: functional, cell-based; conditions: HEK-CNG
[13] = molecular target: T4, Probable nicotinate-nucleotide adenylyltransferase (Staphylococcus aureus (strain N315), UniProt P65502); format: functional, Staphylococcus aureus subsp. aureus N315;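 as to IC50 Mean: confirmatory dose-response retesting of NadD inhibitor hits first found in an ultra-high-throughput screen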
T4 sequence (P65502 whole entry): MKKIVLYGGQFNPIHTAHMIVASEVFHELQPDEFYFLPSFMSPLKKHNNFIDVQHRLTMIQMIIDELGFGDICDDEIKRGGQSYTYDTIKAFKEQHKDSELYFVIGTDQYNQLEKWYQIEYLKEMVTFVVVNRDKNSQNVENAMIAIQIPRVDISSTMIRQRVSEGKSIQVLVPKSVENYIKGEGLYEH

[14] = molecular target: T4, Probable nicotinate-nucleotide adenylyltransferase; format: functional, Staphylococcus aureus subsp. aureus N315; conditions: read-out: IC50_Mean
Protein Wnt-3a [15] = molecular target: T5, Protein Wnt-3a (Mus musculus, UniProt P27467); experiment: antagonism of Wnt3a pathway luciferase reporter – Wnt-LIGHT cells, luminescence, selectivity assay for Gli-SUFU antagonist project, dose response (AID 651570); format: functional; conditions: read-out: IC50_Mean;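 also: Wnt-LIGHT reporter cells stimulated with conditioned medium from Wnt3a-producing cells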
T5 sequence (P27467 whole entry): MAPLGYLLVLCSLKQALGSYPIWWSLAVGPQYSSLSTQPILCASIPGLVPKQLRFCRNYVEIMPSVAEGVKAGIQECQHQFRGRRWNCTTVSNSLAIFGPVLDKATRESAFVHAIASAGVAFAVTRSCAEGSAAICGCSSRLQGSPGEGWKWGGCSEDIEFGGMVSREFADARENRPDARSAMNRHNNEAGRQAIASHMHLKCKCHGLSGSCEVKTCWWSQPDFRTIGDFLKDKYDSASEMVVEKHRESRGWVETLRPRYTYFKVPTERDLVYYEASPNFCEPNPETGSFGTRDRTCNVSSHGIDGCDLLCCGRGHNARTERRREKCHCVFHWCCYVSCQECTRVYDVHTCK

[16] = general mammalian cell viability loss – inhibitor set, cherry-pick, set 2, cytotoxicity control for miR-122 modulator project, dose response (AID 720697); format: functional, cell-based
[17] = molecular target: T6, High affinity choline transporter 1 (Homo sapiens, UniProt Q9GZV3); experiment: human choline transporter blockers, potency – cell-based, 5-point CRC, membrane potential dye, dose response (AID 504840); format: functional
T6 sequence (Q9GZV3 whole entry): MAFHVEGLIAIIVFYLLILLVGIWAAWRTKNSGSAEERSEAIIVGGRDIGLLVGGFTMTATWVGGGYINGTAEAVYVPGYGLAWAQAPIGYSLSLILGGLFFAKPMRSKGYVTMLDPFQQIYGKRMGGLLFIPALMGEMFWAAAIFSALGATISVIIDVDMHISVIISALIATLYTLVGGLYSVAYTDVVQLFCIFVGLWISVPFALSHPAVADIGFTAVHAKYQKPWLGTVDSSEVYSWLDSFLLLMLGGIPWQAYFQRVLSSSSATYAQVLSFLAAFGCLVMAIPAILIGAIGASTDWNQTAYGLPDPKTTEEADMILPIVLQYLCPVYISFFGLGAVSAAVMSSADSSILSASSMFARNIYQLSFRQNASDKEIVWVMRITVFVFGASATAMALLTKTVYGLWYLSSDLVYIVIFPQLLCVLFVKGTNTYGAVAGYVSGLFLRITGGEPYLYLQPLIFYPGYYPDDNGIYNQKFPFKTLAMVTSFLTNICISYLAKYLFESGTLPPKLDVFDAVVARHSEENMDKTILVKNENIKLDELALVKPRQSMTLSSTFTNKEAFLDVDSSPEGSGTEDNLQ

[18] = molecular target: T7, Short transient receptor potential channel 4 (Mus musculus, UniProt Q9QUQ5); experiment: calcium entry via TRPC4 opening agents – cell-based, HEK293 TRPC4/mu-opioid, Fluo-4 calcium, dose response (AID 434937); format: functional
T7 sequence (Q9QUQ5 whole entry): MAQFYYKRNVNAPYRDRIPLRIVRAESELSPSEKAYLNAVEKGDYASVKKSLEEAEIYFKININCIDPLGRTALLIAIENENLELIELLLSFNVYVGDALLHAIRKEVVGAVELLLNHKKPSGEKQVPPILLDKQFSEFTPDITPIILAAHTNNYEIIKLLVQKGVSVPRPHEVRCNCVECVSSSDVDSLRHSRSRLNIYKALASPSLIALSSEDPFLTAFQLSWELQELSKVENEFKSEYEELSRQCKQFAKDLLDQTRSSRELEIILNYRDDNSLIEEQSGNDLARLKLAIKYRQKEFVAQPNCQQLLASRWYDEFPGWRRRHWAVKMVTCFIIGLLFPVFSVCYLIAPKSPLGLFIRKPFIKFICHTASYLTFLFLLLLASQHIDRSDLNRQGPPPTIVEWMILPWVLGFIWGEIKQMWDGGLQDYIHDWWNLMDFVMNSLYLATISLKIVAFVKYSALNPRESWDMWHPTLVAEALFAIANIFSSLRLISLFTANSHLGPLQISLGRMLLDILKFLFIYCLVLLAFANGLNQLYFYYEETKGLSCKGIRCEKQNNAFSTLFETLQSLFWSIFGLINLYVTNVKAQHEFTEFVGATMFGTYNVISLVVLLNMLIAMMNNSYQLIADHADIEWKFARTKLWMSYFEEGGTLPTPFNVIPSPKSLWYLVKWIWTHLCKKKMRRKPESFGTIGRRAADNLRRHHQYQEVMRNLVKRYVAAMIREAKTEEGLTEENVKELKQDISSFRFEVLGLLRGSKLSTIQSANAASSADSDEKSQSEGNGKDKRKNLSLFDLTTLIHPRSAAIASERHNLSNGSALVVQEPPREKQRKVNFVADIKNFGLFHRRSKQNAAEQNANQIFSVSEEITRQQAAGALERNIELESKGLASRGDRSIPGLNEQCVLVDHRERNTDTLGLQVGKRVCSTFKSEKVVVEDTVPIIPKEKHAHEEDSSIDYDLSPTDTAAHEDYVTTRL

[19] = molecular target: T6, High affinity choline transporter 1; experiment: human choline transporter blockers, potency – cell-based, 10-point CRC, membrane potential dye, dose response (AID 588401); format: functional;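 also: membrane potential dye fluorescence of choline-evoked depolarization via CHT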
[20] = fluconazole-exposed Candida albicans growth modulators – fluorescence, retest, confirmation (AID 2467); format: functional, cell-based
[21] = NIH-3T3 fibroblast cytotoxicity, dose response, cytotoxicity control, cell-based, fluorescence, Alamar Blue, secondary assay (AID 2327); format: functional;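 also: NIH-3T3 mouse fibroblasts cultured with fluconazole at 8 µg/mL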
[22] = molecular target: T8, Methionyl-tRNA synthetase, putative (Trypanosoma brucei brucei, UniProt Q38C91); format: functional, Trypanosoma brucei brucei strain 927/4 GUTat10.1
T8 sequence (Q38C91 whole entry): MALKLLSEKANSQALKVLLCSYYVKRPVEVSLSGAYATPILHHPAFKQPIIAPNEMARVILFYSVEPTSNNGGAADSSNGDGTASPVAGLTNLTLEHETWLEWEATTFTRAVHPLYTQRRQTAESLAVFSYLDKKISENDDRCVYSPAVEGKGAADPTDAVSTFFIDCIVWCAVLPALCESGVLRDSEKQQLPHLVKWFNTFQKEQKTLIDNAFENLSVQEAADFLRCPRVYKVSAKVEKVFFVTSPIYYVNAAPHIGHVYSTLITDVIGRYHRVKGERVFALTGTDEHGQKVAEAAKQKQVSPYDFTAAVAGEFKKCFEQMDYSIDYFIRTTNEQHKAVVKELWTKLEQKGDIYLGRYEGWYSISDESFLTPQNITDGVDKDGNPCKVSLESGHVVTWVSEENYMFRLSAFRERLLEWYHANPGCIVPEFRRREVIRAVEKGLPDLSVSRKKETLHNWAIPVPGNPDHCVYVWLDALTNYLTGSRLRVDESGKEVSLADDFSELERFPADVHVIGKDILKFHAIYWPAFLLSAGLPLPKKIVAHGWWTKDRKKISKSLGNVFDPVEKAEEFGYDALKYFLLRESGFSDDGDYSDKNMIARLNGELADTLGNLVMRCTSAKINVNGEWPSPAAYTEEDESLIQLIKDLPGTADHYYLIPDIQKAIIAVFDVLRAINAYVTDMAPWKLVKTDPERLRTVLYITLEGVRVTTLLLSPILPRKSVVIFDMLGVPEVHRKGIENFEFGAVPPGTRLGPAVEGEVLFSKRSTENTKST

[23] = Counterscreen for inhibitors of Trypanosoma brucei methionyl tRNA synthetase (MetRS): Luminescence-based cell-based high throughput dose response assay to identify compounds that are cytotoxic to Jurkat human T lymphocyte cells.; format: functional
[24] = molecular target: T8, Methionyl-tRNA synthetase, putative; format: functional, Trypanosoma brucei brucei strain 927/4 GUTat10.1; remark: listed apart in the source
[25] = molecular target: T6, High affinity choline transporter 1; experiment: human choline transporter radiolabel uptake blockers – cell-based, 3H-choline uptake, CHT LV-AA trafficking mutant, CRC, dose response (AID 602208); format: functional
[26] = blockers of HIV-1 ZM109 envelope-driven cell-cell fusion – HeLa effector, CEM target cells, luciferase, cherry-pick, dose response (AID 652058); format: functional, cell-based;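 also: luciferase signal from HIV-1 Env mediated cell-cell fusion of effector and target cells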
HeLa = experiment: viability loss in HeLa cells – cell-based, ATP luminescence, cherry-pick samples, cytotoxicity control, dose response (AID 687004); format: functional; conditions: Homo sapiens
[27] = molecular target: T9, ATP-dependent translocase ABCB1 (Homo sapiens, UniProt P08183); experiment: P-gp JC-1 efflux blockade concentration-response – Jurkat-DNR cells, flow cytometry, set 2, dose response (AID 504569); format: functional; conditions: read-out: EC50_MICROM_;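 also: potency of pump inhibitors that raise cellular JC-1 green fluorescence up to the nicardipine level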
T9 sequence (P08183 whole entry): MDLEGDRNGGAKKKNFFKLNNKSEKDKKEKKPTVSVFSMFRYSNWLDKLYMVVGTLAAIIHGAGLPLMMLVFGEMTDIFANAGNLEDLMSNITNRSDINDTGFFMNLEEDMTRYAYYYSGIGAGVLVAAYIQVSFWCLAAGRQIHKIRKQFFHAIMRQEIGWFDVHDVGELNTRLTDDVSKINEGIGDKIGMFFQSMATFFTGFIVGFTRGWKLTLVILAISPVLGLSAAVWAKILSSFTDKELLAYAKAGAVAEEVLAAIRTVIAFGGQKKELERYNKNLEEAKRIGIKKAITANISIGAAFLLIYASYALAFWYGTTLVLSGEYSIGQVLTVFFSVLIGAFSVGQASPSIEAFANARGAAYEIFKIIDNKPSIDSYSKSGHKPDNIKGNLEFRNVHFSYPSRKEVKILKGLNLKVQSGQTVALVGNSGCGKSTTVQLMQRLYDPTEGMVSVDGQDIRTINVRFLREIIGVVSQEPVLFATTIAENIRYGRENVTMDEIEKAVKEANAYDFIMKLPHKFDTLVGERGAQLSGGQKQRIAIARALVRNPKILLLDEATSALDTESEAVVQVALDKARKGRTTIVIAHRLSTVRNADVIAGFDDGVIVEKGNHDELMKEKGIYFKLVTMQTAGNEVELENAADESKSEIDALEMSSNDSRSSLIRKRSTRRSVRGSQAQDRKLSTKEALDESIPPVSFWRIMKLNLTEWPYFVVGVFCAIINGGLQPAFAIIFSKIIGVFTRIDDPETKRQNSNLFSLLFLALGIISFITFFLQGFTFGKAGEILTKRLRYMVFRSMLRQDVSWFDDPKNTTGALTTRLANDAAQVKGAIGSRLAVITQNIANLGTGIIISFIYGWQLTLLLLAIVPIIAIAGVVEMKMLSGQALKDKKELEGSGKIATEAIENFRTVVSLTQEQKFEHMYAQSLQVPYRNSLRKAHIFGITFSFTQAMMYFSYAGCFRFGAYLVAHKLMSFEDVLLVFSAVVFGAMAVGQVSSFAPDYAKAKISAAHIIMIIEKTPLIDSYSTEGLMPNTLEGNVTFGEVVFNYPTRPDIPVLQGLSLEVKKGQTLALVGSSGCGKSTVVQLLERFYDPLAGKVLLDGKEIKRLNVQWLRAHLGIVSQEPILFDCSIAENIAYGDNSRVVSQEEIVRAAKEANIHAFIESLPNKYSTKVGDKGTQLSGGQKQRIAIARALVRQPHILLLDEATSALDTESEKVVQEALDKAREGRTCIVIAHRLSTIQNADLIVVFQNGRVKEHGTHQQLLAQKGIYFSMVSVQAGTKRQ

[28] = molecular target: T9, ATP-dependent translocase ABCB1; experiment: inhibition of BCRP-mediated JC-1 efflux – Ig-MXP3 cells, flow cytometry, set 2, dose response (AID 504566); format: functional; conditions: read-out: EC50_MICROM_;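 also: flow cytometry median green fluorescence of retained JC-1 dye; potency of efflux pump inhibition measured as rising substrate retention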
[29] = inhibition of ARNT PAS-B/TACC3 complex formation – biochemical, AlphaScreen, cherry-picked samples, confirmation (AID 651703); format: functional, Homo sapiens;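 also: His-tagged ARNT PAS-B domain paired with GST-TACC3 E629A dimer coactivator fragment; potency of inhibitors that break up the complex and lower AlphaScreen signal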
Protein Wnt-3a [30] = molecular target: T5, Protein Wnt-3a; experiment: SAR analysis of small molecule antagonists of Gli-SUFU in a Wnt3a luminescent reporter assay.; format: functional

Sequence of Albumin (P02769 whole entry): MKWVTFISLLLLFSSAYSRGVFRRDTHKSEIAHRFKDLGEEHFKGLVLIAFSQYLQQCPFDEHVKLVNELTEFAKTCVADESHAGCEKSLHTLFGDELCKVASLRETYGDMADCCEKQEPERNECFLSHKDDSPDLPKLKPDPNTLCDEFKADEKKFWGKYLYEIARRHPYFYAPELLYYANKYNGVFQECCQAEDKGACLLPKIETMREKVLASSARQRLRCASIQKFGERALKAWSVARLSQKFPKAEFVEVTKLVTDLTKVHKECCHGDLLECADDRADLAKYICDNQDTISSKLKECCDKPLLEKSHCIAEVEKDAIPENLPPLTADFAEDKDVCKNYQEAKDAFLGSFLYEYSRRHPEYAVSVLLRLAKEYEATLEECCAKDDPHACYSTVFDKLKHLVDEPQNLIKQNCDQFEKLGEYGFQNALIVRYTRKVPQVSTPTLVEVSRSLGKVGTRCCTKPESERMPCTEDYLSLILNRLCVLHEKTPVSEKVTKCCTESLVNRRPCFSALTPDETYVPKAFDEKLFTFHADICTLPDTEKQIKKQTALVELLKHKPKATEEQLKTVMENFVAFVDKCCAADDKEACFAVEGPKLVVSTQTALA

O=C(NNC(=S)NC1CCCCC1)c1ccccc1O
IC50 (Albumin): > 94.1 µM (inactive)

CC1C(c2ccccc2)OCCN1C(=S)Nc1ccc(S(=O)(=O)N2CCCCC2)cc1 (configuration not stated)
IC50 (Interleukin-8 [1]): 3.69 µM (active)
IC50 (Interleukin-8 [2]): 4.48 µM (active)

C[C@@H]1CN([C@H](C)CO)C(=O)Cc2cc(NS(=O)(=O)c3ccc(Cl)cc3)ccc2O[C@@H]1CN(C)S(=O)(=O)c1ccc(Cl)cc1
AC50 [3]: 3.39 µM (active)
AC50 [4]: 39 µM (inactive)

O=C1/C(=C\c2ccccc2)CN(C(=O)CCN2CCCCC2)C/C1=C/c1ccccc1
IC50 [5]: 84.9 µM (active)
IC50 [6]: 2.89 µM (active)

CC(C)Oc1ccc(-c2nc(NCC3CCCO3)c3ccccc3n2)cc1 (configuration not stated)
IC50 [7]: 18.1 µM (active)
CC50 [8]: 29.2 µM (active)
IC50 [9]: 24.2 µM (inactive)

C[C@@H]1CN([C@@H](C)CO)C(=O)c2cc(C#Cc3cccnc3)cnc2O[C@H]1CN(C)S(C)(=O)=O
AC50 [10]: 6.02 µM (active)

CCOc1cccc(/C=N/NC(=O)c2cccnc2)c1O
AC50 [11]: 101 µM (active)
IC50 (Nonstructural protein 1): 15.5 µM (active)

CNC(=O)c1cc2cc(OC)ccc2oc1=O
IC50 [12]: 2.13 µM (active)

CC(=O)OCC1OC(n2c(S)c(C#N)c(-c3ccccc3)c(C#N)c2=O)C(OC(C)=O)C(OC(C)=O)C1OC(C)=O (configuration not stated)
IC50 (Galanin receptor type 3): 0.503 µM (active)
EC50 (cells): > 29.9 µM (inactive)

Cc1ccc(C2(SCC(N)C(=O)O)c3ccccc3-c3ccccc32)cc1 (configuration not stated)
IC50 [13]: 11 µM (active)
IC50 [14]: 32.5 µM (active)

Cc1nnsc1C(=O)Nc1ccc(S(=O)(=O)N2CCC(C)CC2)cc1
IC50 (Protein Wnt-3a [15]): 27.1 µM (inactive)

CN(C(=O)c1ccccc1Cl)C1CCCCC1
AC50 [16]: 0.346 µM (active)

CC(C)(C)C(=O)NC(=S)NNC(=O)C(c1ccccc1)c1ccccc1
IC50 [17]: 6.48 µM (active)
EC50 [18]: 1.06 µM (active)
IC50 [19]: 4.01 µM (active)
EC50 [20]: 1.2 µM (active)
EC50 [21]: 5.35 µM (inconclusive)

Cc1cc(Cn2nc(-c3ccccc3)cc2C(=O)NCc2cccc(Br)c2)on1
IC50 [22]: 5.75 µM (active)
IC50 [23]: 83.3 µM (inactive)
IC50 [24]: 2.08 µM (active)

O=C(NC1CCCCC1)c1ccc(OC2CCN(Cc3ccccn3)CC2)cc1
IC50 [25]: 8.43 µM (active)
IC50 [17]: 1.65 µM (active)
IC50 [19]: 0.891 µM (active)

COc1ccccc1C(=O)Nc1ccc2c(c1)OC[C@H](C)N(C(C)=O)C[C@H](C)[C@H](OC)CN(C)C2=O
AC50 [26]: 33.4 µM (active)
AC50 (HeLa): 44.9 µM (active)

Cc1cccc(-c2cc3nc(-c4ccccc4)cc(N4CCN(C(=O)c5ccco5)CC4)n3n2)c1
EC50 [27]: 3.77 µM (active)
EC50 [28]: 3.22 µM (active)

O=C(NC[C@H]1[C@H](c2ccccc2)[C@H](CO)N1Cc1ccccn1)C1CCC1
AC50 [29]: 129 µM (active)

COc1cccc(C(=O)Nc2cc(N3CCCCC3)ncn2)c1
IC50 (Protein Wnt-3a [30]): > 21.8 µM (inactive)
